Test results published in patent US4563472A, “Iodoallyl and iodopropargyl substituted tetrazoles and anti-microbial compositions thereof” (Meiji Seika Kaisha, Ltd., priority 1982, dated 1986).
≈ marks a conversion by molar mass, not a printed value. Like-named read-outs stand apart in the source and are kept apart here.

Experiments:
Format in all cases: cell-based
[1] = test system: Phricularia oryzae; test: Antibacterial and Antifungal Activities (in Agricultural Field), MIC; details: read-out: Minimal Inhibitory Conc. (MIC)
[2] = test system: Gibberella fujikuroi; test: as above; details: Fusarium fujikuroi, read-out: Minimal Inhibitory Conc. (MIC)
[3] = test system: Colletotrichum lagenarium; test: as above; details: Colletotrichum orbiculare, read-out: Minimal Inhibitory Conc. (MIC)
[4] = test system: Chaetomium globosum ATCC 6205; test: Antifungal Activity (in Industrial Field), MIC; details: ATCC6205, read-out: Minimal Inhibitory Conc. (MIC)
[5] = test system: Proteus vulgaris OX-19; test: Antibacterial Activity (in medicinal field), MIC; details: OX19, read-out: Minimal Inhibitory Conc. (MIC)
[6] = test system: Aspergillus fumigatus IAM 2621; test: Antifungal Activity (in Industrial Field), MIC; details: IAM2621, read-out: Minimal Inhibitory Conc. (MIC)
[7] = test system: Staphylococcus epidermidis ATCC 14990; test: Antibacterial Activity (in medicinal field), MIC; details: ATCC14990; Staphylococcus epidermidis ATCC 14990; read-out: Minimal Inhibitory Conc. (MIC)
[8] = test system: Aspergillus fumigatus Saito; test: Antifungal Activity (in Medicinal Field), MIC; details: read-out: Minimal Inhibitory Conc. (MIC)
[9] = test system: Mucor spinescens IAM Mu3; test: Antifungal Activity (in Industrial Field), MIC; details: IAMMU3, read-out: Minimal Inhibitory Conc. (MIC)
[10] = test system: Cladosporium herbarum IAM F-517; test: Antifungal Activity (in Industrial Field), MIC; details: IAMF517, read-out: Minimal Inhibitory Conc. (MIC)
[11] = test system: Erwinia carotovora; test: Antibacterial and Antifungal Activities (in Agricultural Field), MIC; details: Pectobacterium carotovorum, read-out: Minimal Inhibitory Conc. (MIC)
[12] = test system: Trichophyton metagrophytes 530324; test: Antifungal Activity (in Medicinal Field), MIC; details: Trichophyton metagrophytes 530324; read-out: Minimal Inhibitory Conc. (MIC)
[13] = test system: Candida alubicans GA-24; test: Antifungal Activity (in Medicinal Field), MIC; details: GA24; Candida alubicans GA-24; read-out: Minimal Inhibitory Conc. (MIC)
[14] = test system: Trichophyton interdigitale; test: Antifungal Activity (in Medicinal Field), MIC; details: read-out: Minimal Inhibitory Conc. (MIC)
[15] = test system: Pseudomonas cepacia M-0527; test: Antibacterial Activity (in medicinal field), MIC; details: Burkholderia cepacia, M0527, read-out: Minimal Inhibitory Conc. (MIC)
[16] = test system: Xanthomonas campestris pv. citri; test: Antibacterial and Antifungal Activities (in Agricultural Field), MIC; details: read-out: Minimal Inhibitory Conc. (MIC)
[17] = test system: Pellicularia filamentosa; test: as above; details: read-out: Minimal Inhibitory Conc. (MIC)
[18] = test system: Trichoderma T-1 ATCC 9645; test: Antifungal Activity (in Industrial Field), MIC; details: ATCC9645, read-out: Minimal Inhibitory Conc. (MIC)
[19] = test system: Fusarium oxysporum f. lycopersici; test: Antibacterial and Antifungal Activities (in Agricultural Field), MIC; details: read-out: Minimal Inhibitory Conc. (MIC)
[20] = test system: Corynebacterium michiganense; test: as above; details: Clavibacter michiganensis; Corynebacterium michiganense; read-out: Minimal Inhibitory Conc. (MIC)
[21] = test system: Cryptococcus neoformans Cr-1; test: Antifungal Activity (in Medicinal Field), MIC; details: CR1, read-out: Minimal Inhibitory Conc. (MIC)
[22] = test system: Penicillium luteum ATCC 9644; test: Antifungal Activity (in Industrial Field), MIC; details: Ascospirella lutea, ATCC9644, read-out: Minimal Inhibitory Conc. (MIC)
[23] = test system: Staphylococcus aureus 209P JC-1; test: Antibacterial Activity (in medicinal field), MIC; details: read-out: Minimal Inhibitory Conc. (MIC)
[24] = test system: Pullularia pullulans IAM F-24; test: Antifungal Activity (in Industrial Field), MIC; details: IAMF24; Pullularia pullulans IAM F-24; read-out: Minimal Inhibitory Conc. (MIC)
[25] = test system: Escherichia coli NIHJ JC-2; test: Antibacterial Activity (in medicinal field), MIC; details: NIHJJC2, read-out: Minimal Inhibitory Conc. (MIC)
[26] = test system: Alternaria kikuchiana; test: Antibacterial and Antifungal Activities (in Agricultural Field), MIC; details: read-out: Minimal Inhibitory Conc. (MIC)
[27] = test system: Pseudomonas syringae pv. tabaci; test: as above; details: read-out: Minimal Inhibitory Conc. (MIC)
[28] = test system: Shigella sonnei EW 33 Type I; test: Antibacterial Activity (in medicinal field), MIC; details: EW33TYPEI, read-out: Minimal Inhibitory Conc. (MIC)
[29] = test system: Diaporithe citri; test: Antibacterial and Antifungal Activities (in Agricultural Field), MIC; details: read-out: Minimal Inhibitory Conc. (MIC)
[30] = test system: Glomerella cingulata; test: as above; details: Colletotrichum gloeosporioides, read-out: Minimal Inhibitory Conc. (MIC)
[31] = test system: Serratia marcescens MB-3848; test: Antibacterial Activity (in medicinal field), MIC; details: MB3848, read-out: Minimal Inhibitory Conc. (MIC)
[32] = test system: Aspergillus flavus ATCC 6275; test: Antifungal Activity (in Industrial Field), MIC; details: ATCC6275, read-out: Minimal Inhibitory Conc. (MIC)
[33] = test system: Cochliobolus miyabeanus; test: Antibacterial and Antifungal Activities (in Agricultural Field), MIC; details: Bipolaris oryzae, read-out: Minimal Inhibitory Conc. (MIC)
[34] = test system: Botrytis cinerea; test: as above; details: read-out: Minimal Inhibitory Conc. (MIC)
[35] = test system: Aspergillus terreus PQMD 82 j; test: Antifungal Activity (in Industrial Field), MIC; details: PQMD82J, read-out: Minimal Inhibitory Conc. (MIC)
[36] = test system: Klebsiella pneumoniae PCI-602; test: Antibacterial Activity (in medicinal field), MIC; details: PCI602, read-out: Minimal Inhibitory Conc. (MIC)
[37] = test system: Pseudomonas maltophilia M-0627; test: Antibacterial Activity (in medicinal field), MIC; details: Stenotrophomonas maltophilia, M0627, read-out: Minimal Inhibitory Conc. (MIC)
[38] = test system: Salmonella typhi O-901-W; test: Antibacterial Activity (in medicinal field), MIC; details: Salmonella enterica, read-out: Minimal Inhibitory Conc. (MIC)
[39] = test system: Bacillus anthracis No. 119; test: microbe, parasite or virus in culture; details: NO.119, read-out: Minimal Inhibitory Conc. (MIC)
[40] = test system: Rhizopus nigricans S.N. 32; test: Antifungal Activity (in Industrial Field), MIC; details: Rhizopus stolonifer, read-out: Minimal Inhibitory Conc. (MIC)
[41] = test system: Xanthomonas campestris pv. oryzae; test: microbe, parasite or virus in culture; details: read-out: Minimal Inhibitory Conc. (MIC)
[42] = Staphylococcus aureus 209P JC-1

Row | Compound | MIC [1] [µg/mL] | MIC [2] [µg/mL] | MIC [3] [µg/mL] | MIC [4] [µg/mL] | MIC [5] [µg/mL] | MIC [6] [µg/mL] | MIC [8] [µg/mL] | MIC [9] [µg/mL] | MIC [10] [µg/mL] | MIC [11] [µg/mL] | MIC [12] [µg/mL] | MIC [13] [µg/mL] | MIC [14] [µg/mL] | MIC [15] [µg/mL] | MIC [16] [µg/mL] | MIC [17] [µg/mL] | MIC [21] [µg/mL] | MIC [25] [µg/mL] | MIC [31] [µg/mL] | MIC [36] [µg/mL] | also measured
1 | IC(I)=C(I)Cn1ccnc1 [1-(2',3',3'-triiodoallyl)imidazole] | 3.13 (≈ 6.44 µM) | 0.78 (≈ 1.61 µM) | 1.56 (≈ 3.21 µM) | 1.56 (≈ 3.21 µM) | 12.5 (≈ 25.7 µM) | 6.25 (≈ 12.9 µM) | 6.25 (≈ 12.9 µM) | 6.25 (≈ 12.9 µM) | 0.39 (≈ 0.803 µM) | 12.5 (≈ 25.7 µM) | 1.56 (≈ 3.21 µM) | 1.56 (≈ 3.21 µM) | 3.12 (≈ 6.42 µM) | 6.25 (≈ 12.9 µM) | 25 (≈ 51.5 µM) | 50 (≈ 103 µM) | 6.25 (≈ 12.9 µM) | 12.5 (≈ 25.7 µM) | 12.5 (≈ 25.7 µM) | 12.5 (≈ 25.7 µM) | MIC [7]: 12.5 µg/mL (≈ 25.7 µM); MIC [18]: 6.25 µg/mL (≈ 12.9 µM); MIC [19]: 1.56 µg/mL (≈ 3.21 µM); MIC [20]: 1.56 µg/mL (≈ 3.21 µM); MIC [22]: 0.78 µg/mL (≈ 1.61 µM); MIC [23, 42]: 12.5 µg/mL (≈ 25.7 µM); MIC [24]: 3.13 µg/mL (≈ 6.44 µM); MIC [26]: 1.56 µg/mL (≈ 3.21 µM); MIC [27]: 12.5 µg/mL (≈ 25.7 µM); MIC ([28]; Shigella sonnei): 6.5 µg/mL (≈ 13.4 µM); MIC [29]: 0.78 µg/mL (≈ 1.61 µM); MIC [30]: 1.56 µg/mL (≈ 3.21 µM); MIC [32]: 3.13 µg/mL (≈ 6.44 µM); MIC [33]: 6.25 µg/mL (≈ 12.9 µM); MIC [34]: 1.56 µg/mL (≈ 3.21 µM); MIC [35]: 0.78 µg/mL (≈ 1.61 µM)
2 | IC(I)=C(I)Cn1cnnn1 [1-(2',3',3'-triiodoallyl)tetrazole] |  |  |  |  | 6.25 (≈ 12.8 µM) |  | 0.78 (≈ 1.6 µM) |  |  |  | 0.39 (≈ 0.799 µM) | 3.12 (≈ 6.4 µM) | 0.39 (≈ 0.799 µM) | 0.78 (≈ 1.6 µM) |  |  | 3.12 (≈ 6.4 µM) | 3.13 (≈ 6.42 µM) | 3.13 (≈ 6.42 µM) | 3.13 (≈ 6.42 µM) | MIC [37]: 0.78 µg/mL (≈ 1.6 µM); MIC [38]: 1.56 µg/mL (≈ 3.2 µM); MIC [23, 42]: 31.3 µg/mL (≈ 64.2 µM); MIC ([28]; Shigella sonnei EW 33 Type I): 3.13 µg/mL (≈ 6.42 µM); MIC [39]: 0.78 µg/mL (≈ 1.6 µM)
3 | IC(I)=C(I)Cn1ncnn1 [2-(2',3',3'-triiodoallyl)tetrazole] | 3.13 (≈ 6.42 µM) | 0.39 (≈ 0.799 µM) | 0.78 (≈ 1.6 µM) | 12.5 (≈ 25.6 µM) | 12.5 (≈ 25.6 µM) | 6.25 (≈ 12.8 µM) | 0.19 (≈ 0.389 µM) | 1.56 (≈ 3.2 µM) | 6.25 (≈ 12.8 µM) | > 100 | 0.09 (≈ 0.184 µM) | 0.19 (≈ 0.389 µM) | 0.09 (≈ 0.184 µM) | 1.56 (≈ 3.2 µM) | 25 (≈ 51.2 µM) | 50 (≈ 102 µM) | 0.78 (≈ 1.6 µM) | 12.5 (≈ 25.6 µM) | 6.25 (≈ 12.8 µM) | 12.5 (≈ 25.6 µM) | MIC [37]: 1.56 µg/mL (≈ 3.2 µM); MIC [40]: 3.13 µg/mL (≈ 6.42 µM); MIC [38]: 6.25 µg/mL (≈ 12.8 µM); MIC [18]: 3.13 µg/mL (≈ 6.42 µM); MIC [19]: 1.56 µg/mL (≈ 3.2 µM); MIC [20]: 12.5 µg/mL (≈ 25.6 µM); MIC [22]: 6.25 µg/mL (≈ 12.8 µM); MIC ([23]; Staphylococcus aureus, 209P): 6.25 µg/mL (≈ 12.8 µM); MIC [41]: 6.25 µg/mL (≈ 12.8 µM); MIC [24]: 0.76 µg/mL (≈ 1.56 µM); MIC [26]: 3.13 µg/mL (≈ 6.42 µM); MIC [27]: > 100 µg/mL; MIC ([28]; Shigella sonnei EW 33 Type I): 6.25 µg/mL (≈ 12.8 µM); MIC [29]: 0.78 µg/mL (≈ 1.6 µM); MIC [30]: 0.39 µg/mL (≈ 0.799 µM); MIC [39]: 1.56 µg/mL (≈ 3.2 µM); MIC [32]: 0.78 µg/mL (≈ 1.6 µM); MIC [33]: 1.56 µg/mL (≈ 3.2 µM); MIC [34]: 0.39 µg/mL (≈ 0.799 µM); MIC [35]: 0.78 µg/mL (≈ 1.6 µM)
